# From ChEMBL document CHEMBL3603789, “N-Lipidated Peptide Dimers: Effective Antibacterial Agents against Gram-Negative Pathogens through Lipopolysaccharide Permeabilization” (J Med Chem, 2015)
# Bridge positions count the residues as written; N and C are the ends. Peptide text beside a SMILES is read from it. I, II: the chains in the order shown. * marks the point of attachment. Palmitoyl = CCCCCCCCCCCCCCCC(=O)*; Myristoyl = CCCCCCCCCCCCCC(=O)*; Hexanoyl = CCCCCC(=O)*
# How the values were obtained:
# Pseudomonas aeruginosa [1] = test: Antibacterial activity against Pseudomonas aeruginosa DM23155 after 24 hrs by broth microdilution method; assay type: functional; conditions: DM23155, 24 h
# Lipopolysaccharide (LPS) [2] = test: Displacement of dansylcadaverine from Escherichia coli 0111:B4 LPS at 15 to 30 uM after 5 mins by high-throughput fluorescence displacement assay
# [3] = Self-aggregation activity of the compound using 8-(Phenylamino)-1-naphthalenesulfonic acid as fluorescent probe at 300 uM by fluorescence assay in presence of 150 mM of NaCl; assay type: physicochemical
# [4] = Induction of calcein leakage from DOPC artificial membrane at 1:32 ratio of compound to lipid by fluorescence assay; assay type: physicochemical
# Klebsiella pneumoniae [5] = test: Antibacterial activity against Klebsiella pneumoniae DM4299 after 24 hrs by broth microdilution method; assay type: functional; conditions: DM4299, 24 h
# Pseudomonas aeruginosa [6] = test: Induction of 1-N-phenylnaphthylamine uptake in Pseudomonas aeruginosa DM23155 at 400 uM after 1 hr by fluorescence assay relative to polymyxin B; assay type: functional
# [7] = Self-aggregation activity of the compound using 8-(Phenylamino)-1-naphthalenesulfonic acid as fluorescent probe at 20 uM by fluorescence assay; assay type: physicochemical
# [8] = Toxicity in New Zealand white rabbit erythrocytes assessed as hemolytic activity after 60 mins; assay type: cell-based, Oryctolagus cuniculus; conditions: erythrocyte, 1 h
# Escherichia coli [9] = test: Antibacterial activity against Escherichia coli ATCC 25922 after 24 hrs by broth microdilution method; assay type: functional; conditions: ATCC 25922, 24 h
# [10] = Self-aggregation activity of the compound using 8-(Phenylamino)-1-naphthalenesulfonic acid as fluorescent probe at 100 uM by fluorescence assay; assay type: physicochemical
# Lipopolysaccharide (LPS) [11] = test: Induction of Escherichia coli 0111:B4 LPS neutralization using p-nitroaniline assessed as concentration required to neutralize 50% after 1 hr by limulus amebocyte lysate assay
# Klebsiella pneumoniae [12] = test: Antibacterial activity against Klebsiella pneumoniae DS07955 after 24 hrs by broth microdilution method; assay type: functional; conditions: DS07955, 24 h
# Klebsiella pneumoniae [13] = test: Antibacterial activity against Klebsiella pneumoniae DS16260 after 24 hrs by broth microdilution method; assay type: functional; conditions: DS16260, 24 h
# Pseudomonas aeruginosa [14] = test: Antibacterial activity against Pseudomonas aeruginosa DM23155 after 24 hrs by checkerboard assay in presence of kanamycin; assay type: functional
# Escherichia coli [15] = test: Antibacterial activity against Escherichia coli ATCC 25922 after 24 hrs by checkerboard assay in presence of gentamicin; assay type: functional
# Klebsiella pneumoniae [16] = test: Antibacterial activity against Klebsiella pneumoniae DB55301 after 24 hrs by broth microdilution method; assay type: functional; conditions: DB55301, 24 h
# [17] = Induction of calcein leakage from DOPE/DOPG artificial membrane at 1:32 ratio of compound to lipid by fluorescence assay; assay type: physicochemical
# Pseudomonas aeruginosa [18] = test: Antibacterial activity against Pseudomonas aeruginosa DM23155 after 24 hrs by checkerboard assay in presence of erythromycin; assay type: functional
# Escherichia coli [19] = test: Antibacterial activity against Escherichia coli ATCC 25922 after 24 hrs by checkerboard assay in presence of erythromycin; assay type: functional
# Escherichia coli [20] = test: Antibacterial activity against Escherichia coli DS17232 after 24 hrs by broth microdilution method; assay type: functional; conditions: DS17232, 24 h
# Escherichia coli [21] = test: Antibacterial activity against Escherichia coli ATCC 25922 after 24 hrs by checkerboard assay in presence of streptomycin; assay type: functional
# Pseudomonas aeruginosa [22] = test: Antibacterial activity against Pseudomonas aeruginosa DM23155 after 24 hrs by checkerboard assay in presence of nalidixic acid; assay type: functional
# Escherichia coli [23] = test: Antibacterial activity against Escherichia coli DM17528 after 24 hrs by broth microdilution method; assay type: functional; conditions: DM17528, 24 h
# Pseudomonas aeruginosa [24] = test: Antibacterial activity against Pseudomonas aeruginosa DM23155 after 24 hrs by checkerboard assay in presence of gentamicin; assay type: functional
# Pseudomonas aeruginosa [25] = test: Induction of cytoplasmic membrane disruption in Pseudomonas aeruginosa DM23155 assessed as membrane integrity at 1 to 2 times MIC after 1 hr by fluorescence assay; assay type: functional
# Escherichia coli [26] = test: Antibacterial activity against Escherichia coli ATCC 25922 after 24 hrs by checkerboard assay in presence of nalidixic acid; assay type: functional
# Escherichia coli [27] = test: Antibacterial activity against Escherichia coli ATCC 25922 after 24 hrs by checkerboard assay in presence of kanamycin; assay type: functional
# Klebsiella pneumoniae [28] = test: Antibacterial activity against Klebsiella pneumoniae DU31158 after 24 hrs by broth microdilution method; assay type: functional; conditions: DU31158, 24 h
# Pseudomonas aeruginosa [29] = test: Antibacterial activity against Pseudomonas aeruginosa DM23155 after 24 hrs by checkerboard assay in presence of streptomycin; assay type: functional
SMILES,MIC (Pseudomonas aeruginosa [1]) [µM],Activity (Lipopolysaccharide (LPS) [2]) [%],Activity [3],Activity [4],MIC (Klebsiella pneumoniae [5]) [µM],Activity (Pseudomonas aeruginosa [6]) [%],Activity [7] [%],HC10 [8] [µg/mL],MIC (Escherichia coli [9]) [µM],Activity [10] [%],EC50 (Lipopolysaccharide (LPS) [11]) [µM],fractional inhibitory concentration index (FICI) (Pseudomonas aeruginosa [14]),fractional inhibitory concentration index (FICI) (Escherichia coli [15]),Activity [17],fractional inhibitory concentration index (FICI) (Pseudomonas aeruginosa [18]),fractional inhibitory concentration index (FICI) (Escherichia coli [19]),fractional inhibitory concentration index (FICI) (Escherichia coli [21]),fractional inhibitory concentration index (FICI) (Pseudomonas aeruginosa [22]),fractional inhibitory concentration index (FICI) (Pseudomonas aeruginosa [24]),Activity (Pseudomonas aeruginosa [25]) [%],also measured
CCCCCCCCCCCCCC(=O)N[C@@H](CCCNC(=N)N)C(=O)NCC(=O)N[C@@H](CCCNC(=N)N)C(=O)N[C@@H](CCCCN)C(=O)NCC(=O)NCC(=O)N[C@@H](CCCNC(=N)N)C(=O)N[C@@H](CCCNC(=N)N)C(=O)NCCCC[C@H](NC(=O)[C@H](CCCNC(=N)N)NC(=O)[C@H](CCCNC(=N)N)NC(=O)CNC(=O)CNC(=O)[C@H](CCCCN)NC(=O)[C@H](CCCNC(=N)N)NC(=O)CNC(=O)[C@H](CCCNC(=N)N)NC(=O)CCCCCCCCCCCCC)C(=O)N[C@@H](CCCCN)C(=O)O (I: Myristoyl-RGRKGGRRKK-OH / II: Myristoyl-RGRKGGRR; amide I:9-II:C),6,124,Active,Active,10,39.2,50,82,10,50,35.3,–,–,–,–,–,–,–,–,–,–
CCCCCC(=O)N[C@@H](CCCNC(=N)N)C(=O)NCC(=O)N[C@@H](CCCNC(=N)N)C(=O)N[C@@H](CCCCN)C(=O)N[C@H](C(=O)N[C@H](C(=O)N[C@@H](CCCNC(=N)N)C(=O)N[C@@H](CCCNC(=N)N)C(=O)NCCCC[C@H](NC(=O)[C@H](CCCNC(=N)N)NC(=O)[C@H](CCCNC(=N)N)NC(=O)[C@@H](NC(=O)[C@@H](NC(=O)[C@H](CCCCN)NC(=O)[C@H](CCCNC(=N)N)NC(=O)CNC(=O)[C@H](CCCNC(=N)N)NC(=O)CCCCC)C(C)C)C(C)C)C(=O)N[C@@H](CCCCN)C(=O)O)C(C)C)C(C)C (I: Hexanoyl-RGRKVVRRKK-OH / II: Hexanoyl-RGRKVVRR; amide I:9-II:C),6,100,–,–,6,–,–,> 10000,3,–,187,0.31,0.38,Active,0.38,0.38,0.38,0.38,0.25,>80,MIC (Klebsiella pneumoniae [12]): 10 µM; MIC (Klebsiella pneumoniae [13]): 3 µM; MIC (Klebsiella pneumoniae [16]): 10 µM; MIC (Escherichia coli [20]): 10 µM; MIC (Escherichia coli [23]): 10 µM; fractional inhibitory concentration index (FICI) (Escherichia coli [26]): 0.5; fractional inhibitory concentration index (FICI) (Escherichia coli [27]): 0.5; MIC (Klebsiella pneumoniae [28]): 10 µM; fractional inhibitory concentration index (FICI) (Pseudomonas aeruginosa [29]): 0.38
CCCCCC(=O)N[C@@H](CCCNC(=N)N)C(=O)NCC(=O)N[C@@H](CCCNC(=N)N)C(=O)N[C@@H](CCCCN)C(=O)NCC(=O)NCC(=O)N[C@@H](CCCNC(=N)N)C(=O)N[C@@H](CCCNC(=N)N)C(=O)NCCCC[C@H](NC(=O)[C@H](CCCNC(=N)N)NC(=O)[C@H](CCCNC(=N)N)NC(=O)CNC(=O)CNC(=O)[C@H](CCCCN)NC(=O)[C@H](CCCNC(=N)N)NC(=O)CNC(=O)[C@H](CCCNC(=N)N)NC(=O)CCCCC)C(=O)N[C@@H](CCCCN)C(=O)O (I: Hexanoyl-RGRKGGRRKK-OH / II: Hexanoyl-RGRKGGRR; amide I:9-II:C),3,86.4,–,–,3,10.5,–,> 10000,3,–,413,0.5,0.56,–,0.56,0.75,0.38,0.63,0.31,–,fractional inhibitory concentration index (FICI) (Escherichia coli [26]): 0.75; fractional inhibitory concentration index (FICI) (Escherichia coli [27]): 0.5; fractional inhibitory concentration index (FICI) (Pseudomonas aeruginosa [29]): 0.5
CCCCCCCCCCCCCCCC(=O)N[C@@H](CCCNC(=N)N)C(=O)NCC(=O)N[C@@H](CCCNC(=N)N)C(=O)N[C@@H](CCCCN)C(=O)N[C@H](C(=O)N[C@H](C(=O)N[C@@H](CCCNC(=N)N)C(=O)N[C@@H](CCCNC(=N)N)C(=O)NCCCC[C@H](NC(=O)[C@H](CCCNC(=N)N)NC(=O)[C@H](CCCNC(=N)N)NC(=O)[C@@H](NC(=O)[C@@H](NC(=O)[C@H](CCCCN)NC(=O)[C@H](CCCNC(=N)N)NC(=O)CNC(=O)[C@H](CCCNC(=N)N)NC(=O)CCCCCCCCCCCCCCC)C(C)C)C(C)C)C(=O)N[C@@H](CCCCN)C(=O)O)C(C)C)C(C)C (I: Palmitoyl-RGRKVVRRKK-OH / II: Palmitoyl-RGRKVVRR; amide I:9-II:C),> 40,151,Active,Active,> 40,–,50,114,10,50,47.9,–,–,Active,–,–,–,–,–,<50,–
CCCCCCCCCCCCCC(=O)N[C@@H](CCCNC(=N)N)C(=O)NCC(=O)N[C@@H](CCCNC(=N)N)C(=O)N[C@@H](CCCCN)C(=O)N[C@H](C(=O)N[C@H](C(=O)N[C@@H](CCCNC(=N)N)C(=O)N[C@@H](CCCNC(=N)N)C(=O)NCCCC[C@H](NC(=O)[C@H](CCCNC(=N)N)NC(=O)[C@H](CCCNC(=N)N)NC(=O)[C@@H](NC(=O)[C@@H](NC(=O)[C@H](CCCCN)NC(=O)[C@H](CCCNC(=N)N)NC(=O)CNC(=O)[C@H](CCCNC(=N)N)NC(=O)CCCCCCCCCCCCC)C(C)C)C(C)C)C(=O)N[C@@H](CCCCN)C(=O)O)C(C)C)C(C)C (I: Myristoyl-RGRKVVRRKK-OH / II: Myristoyl-RGRKVVRR; amide I:9-II:C),3,135,Active,Active,10,–,50,252,1.5,50,32.1,–,–,Active,–,–,–,–,–,<50,–
CCCCCCCCCCCCCCCC(=O)N[C@@H](CCCNC(=N)N)C(=O)NCC(=O)N[C@@H](CCCNC(=N)N)C(=O)N[C@@H](CCCCN)C(=O)NCC(=O)NCC(=O)N[C@@H](CCCNC(=N)N)C(=O)N[C@@H](CCCNC(=N)N)C(=O)NCCCC[C@H](NC(=O)[C@H](CCCNC(=N)N)NC(=O)[C@H](CCCNC(=N)N)NC(=O)CNC(=O)CNC(=O)[C@H](CCCCN)NC(=O)[C@H](CCCNC(=N)N)NC(=O)CNC(=O)[C@H](CCCNC(=N)N)NC(=O)CCCCCCCCCCCCCCC)C(=O)N[C@@H](CCCCN)C(=O)O (I: Palmitoyl-RGRKGGRRKK-OH / II: Palmitoyl-RGRKGGRR; amide I:9-II:C),10,106,Active,Active,10,36.5,50,64,10,50,43,–,–,–,–,–,–,–,–,–,–
